Assay results as given in patent US11524960B2, “Heterobicyclic inhibitors of MAT2A and methods of use for treating cancer” (AGIOS PHARMACEUTICALS, INC., priority 2018, dated 2022).
pIC50: −log10 of the molar value.

Target: T1, MAT2A homodimer (Homo sapiens, UniProt P31153)
T1 construct: inferred from Ni sepharose purification and imidazole elution; made in house; host or cells: Sf9 insect cells, recombinant baculovirus (Bac to Bac, pFASTBAC1)
Assay: Biochemical assay: inhibition of MAT2A (phosphate release, PiColorLock Gold)
Conditions: MAT2A IC50 score; read-out: Enzyme Inhibition (Example 275)
Description: Mat2A protein was expressed by recombinant baculovirus in SF9 infected cells using the Bac to Bac system cloned into the pFASTBAC1 vector (Invitrogen, Carlsbad, Calif.). Recombinant MAT2A was isolated from the cell lysate of 150 g of infected cells using HP Ni sepharose column chromatography. Recombinant MAT2A homodimer was eluted with 250 and 500 mM imidazole, and fractions containing MAT2A were identified by sodium dodecyl sulfate polyacrylamide gel electrophoresis and pooled.
For determination of the inhibitory potency of compounds against the MAT2A homodimer, protein was diluted to […] in assay buffer (50 mM Tris, pH 8.0, 50 mM KCl, 15 mM MgCl2, 0.3 mM EDTA, 0.005% [w/v] bovine serum albumin [BSA]). Test compound was prepared in 100% dimethyl sulfoxide (DMSO) at 50× the desired final concentration. […] of compound dilution was added to 40 μL of enzyme dilution and the mixture was allowed to equilibrate for 60 minutes at 25° C. The enzymatic assay was initiated by the addition of 10 μL of substrate mix (500 μM ATP, pH 7.0, 400 μM L-methionine in 1× assay buffer), and the mixture was incubated for a further 60 minutes at 25° C. The reaction was halted and the liberated phosphate released by the enzyme in stoichiometric amounts by the production of S-adenosyl methionine (SAM) was measured using the PiColorLock Gold kit (Innova Biosciences, UK). Absolute product amounts were determined by comparison to a standard curve of potassium phosphate buffer, pH 8.0.

T1 sequence (P31153 whole entry): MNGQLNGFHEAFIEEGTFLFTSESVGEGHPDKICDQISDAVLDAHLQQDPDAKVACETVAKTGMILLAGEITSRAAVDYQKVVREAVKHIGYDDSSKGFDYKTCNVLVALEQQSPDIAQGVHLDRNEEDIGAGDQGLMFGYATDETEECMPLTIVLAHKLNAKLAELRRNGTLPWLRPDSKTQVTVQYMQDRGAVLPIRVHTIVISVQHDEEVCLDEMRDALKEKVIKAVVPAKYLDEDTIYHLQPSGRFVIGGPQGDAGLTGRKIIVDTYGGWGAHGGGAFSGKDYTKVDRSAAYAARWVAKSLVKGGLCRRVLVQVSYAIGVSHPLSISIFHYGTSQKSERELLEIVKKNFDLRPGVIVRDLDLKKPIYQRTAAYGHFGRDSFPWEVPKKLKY

Row | pIC50 | SMILES
1 | > 7.00 | COc1ccc(-n2cc3cnc(NCC(F)(F)F)nc3c(-c3ccc(OC(F)(F)F)cc3)c2=O)cc1 [Example 196, 6-(4-methoxyphenyl)-2-((2,2,2-trifluoroethyl)amino)-8-(4-(trifluoromethoxy)phenyl)pyrido[4,3-d]pyrimidin-7(6H)-one]
2 | 6.00 to 7.00 | COc1ccc(N2Cc3cnc(SCC4CC4)nc3C3(CCN(Cc4cc[nH]n4)C3)C2=O)cc1 (centres unmarked) [Example 115, 1′-((1H-pyrazol-3-yl)methyl)-2-((cyclopropylmethyl)thio)-6-(4-methoxyphenyl)-5H-spiro[pyrido[4,3-d]pyrimidine-8,3′-pyrrolidin]-7(6H)-one]
3 | 6.00 to 7.00 | COc1ccc(N2Cc3cnc(OCC4CC4)nc3C3(CCN(Cc4ccn[nH]4)C3)C2=O)cc1 (centres unmarked) [Example 114, 1′-((1H-pyrazol-3-yl)methyl)-2-(cyclopropylmethoxy)-6-(4-methoxyphenyl)-5H-spiro[pyrido[4,3-d]pyrimidine-8,3′-pyrrolidin]-7(6H)-one]
4 | 6.00 to 7.00 | COc1ccc(N2Cc3cnc(NCC4CC4)nc3C3(CCN(Cc4cscn4)C3)C2=O)cc1 (centres unmarked) [Example 103, 2-((cyclopropylmethyl)amino)-6-(4-methoxyphenyl)-1′-(thiazol-4-ylmethyl)-5H-spiro[pyrido[4,3-d]pyrimidine-8,3′-pyrrolidin]-7(6H)-one]
5 | > 7.00 | CC(C)n1cnc2ccc(-n3cc4cnc(NCC(F)(F)F)nc4c(-c4ccc(Cl)cc4)c3=O)cc21 [Example 128, 8-(4-chlorophenyl)-6-(1-isopropyl-1H-benzo[d]imidazol-6-yl)-2-(2,2,2-trifluoroethylamino)pyrido[4,3-d]pyrimidin-7(6H)-one]
6 | 5.00 to 6.00 | COc1ccc(-n2cc3cnc(NCC(F)(F)F)nc3c(-c3ccc(C4CCC4)cc3)c2=O)cc1 [Example 199, 8-(4-cyclobutylphenyl)-6-(4-methoxyphenyl)-2-((2,2,2-trifluoroethyl)amino)pyrido[4,3-d]pyrimidin-7(6H)-one]
7 | > 7.00 | O=c1c(-c2ccc(Cl)cc2)c2nc(NCC(F)(F)F)ncc2cn1-c1ccc2nscc2c1 [Example 125, 6-(benzo[c]isothiazol-5-yl)-8-(4-chlorophenyl)-2-((2,2,2-trifluoroethyl)amino)pyrido[4,3-d]pyrimidin-7(6H)-one]
8 | > 7.00 | Cn1cc2cc(-n3cc4ccc(NCC(F)(F)F)nc4c(-c4ccc(CC(F)F)cc4)c3=O)ccc2n1 [Example 214, 8-(4-(2,2-difluoroethyl)phenyl)-6-(2-methyl-2H-indazol-5-yl)-2-((2,2,2-trifluoroethyl)amino)-1,6-naphthyridin-7(6H)-one]
9 | 6.00 to 7.00 | COc1ccc(-n2cc3cnc(NCC(F)(F)F)nc3c(-c3ccc(C(F)(F)F)cc3)c2=O)cc1 [Example 197, 6-(4-methoxyphenyl)-2-((2,2,2-trifluoroethyl)amino)-8-(4-(trifluoromethyl)phenyl)pyrido[4,3-d]pyrimidin-7(6H)-one]
10 | 6.00 to 7.00 | COc1ccc(N2Cc3cnc(NCC4CC4)nc3C3(CCN(Cc4cc[nH]n4)C3)C2=O)cc1 (centres unmarked) [Example 101, 1′-((1H-pyrazol-3-yl)methyl)-2-((cyclopropylmethyl)amino)-6-(4-methoxyphenyl)-5H-spiro[pyrido[4,3-d]pyrimidine-8,3′-pyrrolidin]-7(6H)-one]
11 | 5.00 to 6.00 | O=c1c(-c2ccc(OC(F)F)cc2)c2nc(N3CCC3)ncc2cn1-c1ccc2ncccc2c1 [Example 185, 2-(azetidin-1-yl)-8-(4-(difluoromethoxy)phenyl)-6-(quinolin-6-yl)pyrido[4,3-d]pyrimidin-7(6)-one]
12 | > 7.00 | CCOc1ncc2cn(-c3ccc4ncccc4c3)c(=O)c(-c3ccc(OC(F)F)cc3)c2n1 [Example 271, 8-(4-(difluoromethoxy)phenyl)-2-ethoxy-6-(quinolin-6-yl)pyrido[4,3-d]pyrimidin-7(6H)-one]
13 | 5.00 to 6.00 | O=C1N(c2cnoc2)Cc2cnc(NCC3CC3)nc2C12CCN(Cc1n[nH]cc1Cl)C2 (centres unmarked) [Example 108, 1′-((4-chloro-1H-pyrazol-3-yl)methyl)-2-((cyclopropylmethyl)amino)-6-(isoxazol-4-yl)-5H-spiro[pyrido[4,3-d]pyrimidine-8,3′-pyrrolidin]-7(6H)-one]
14 | 5.00 to 6.00 | O=C1N(c2cnoc2)Cc2cnc(NCC3CC3)nc2C12CCN(Cc1cscn1)C2 (centres unmarked) [Example 107, 2-((cyclopropylmethyl)amino)-6-(isoxazol-4-yl)-1′-(thiazol-4-ylmethyl)-5H-spiro[pyrido[4,3-d]pyrimidine-8,3′-pyrrolidin]-7(6H)-one]
15 | 6.00 to 7.00 | COc1ccc(-c2c(=O)n(-c3ccncc3)cc3cnc(NCC(F)(F)F)nc23)cc1 [Example 176, 8-(4-methoxyphenyl)-6-(pyridin-4-yl)-2-((2,2,2-trifluoroethyl)amino)pyrido[4,3-d]pyrimidin-7(6H)-one]
16 | 6.00 to 7.00 | COc1ccc(-n2cc3cnc(NCCC(F)(F)F)nc3c(-c3ccc(Br)cc3)c2=O)cc1 [Example 186, 8-(4-bromophenyl)-6-(4-methoxyphenyl)-2-((3,3,3-trifluoropropyl)amino)pyrido[4,3-d]pyrimidin-7(6)-one]
17 | > 7.00 | COc1ccc(-n2cc3cnc(OCC(F)(F)F)nc3c(-c3ccc(Br)cc3)c2=O)cc1 [Example 261, 8-(4-bromophenyl)-6-(4-methoxyphenyl)-2-(2,2,2-trifluoroethoxy)pyrido[4,3-d]pyrimidin-7(6H)-one]
18 | > 7.00 | COCc1ccc2cn(-c3ccc4nn(C)cc4c3)c(=O)c(-c3ccc(Cl)cc3)c2n1 [Example 136-A, 8-(4-chlorophenyl)-2-(methoxymethyl)-6-(2-methyl-2H-indazol-5-yl)-1,6-naphthyridin-7(6H)-one]
19 | 5.00 to 6.00 | COc1ccc(CN2Cc3cnc(NCC4CC4)nc3C3(CCN(Cc4ccccc4)C3)C2=O)cc1 (centres unmarked) [Example 118, 1′-benzyl-2-((cyclopropylmethyl)amino)-6-(4-methoxybenzyl)-5,6-dihydro-7H-spiro[pyrido[4,3-d]pyrimidine-8,3′-pyrrolidin]-7-one]
20 | > 7.00 | O=c1c(-c2ccc(C3CC3)cc2)c2nc(NCC(F)(F)F)ncc2cn1-c1ccc2c(c1)CCO2 [Example 164, 8-(4-cyclopropylphenyl)-6-(2,3-dihydrobenzofuran-5-yl)-2-((2,2,2-trifluoroethyl)amino)pyrido[4,3-d]pyrimidin-7(6H)-one]
21 | > 7.00 | O=c1c(-c2ccc(OC(F)F)cc2)c2nc(SCC(F)(F)F)ncc2cn1-c1ccc2ncccc2c1 [Example 274, 8-(4-(difluoromethoxy)phenyl)-6-(quinolin-6-yl)-2-(2,2,2-trifluoroethylthio)pyrido[4,3-d]pyrimidin-7(6H)-one]
22 | > 7.00 | CCCNc1ncc2cn(-c3ccc(OC)cc3)c(=O)c(-c3ccc(Br)cc3)c2n1 [Example 191, 8-(4-bromophenyl)-6-(4-methoxyphenyl)-2-(propylamino)pyrido[4,3-d]pyrimidin-7(6H)-one]
23 | 5.00 to 6.00 | COc1ccc(-n2cc3cnc(N(C)CC(F)(F)F)nc3c(-c3ccc(Br)cc3)c2=O)cc1 [Example 187, 8-(4-bromophenyl)-6-(4-methoxyphenyl)-2-(methyl(2,2,2-trifluoroethyl)amino)pyrido[4,3-d]pyrimidin-7(6H)-one]
24 | 6.00 to 7.00 | O=c1c(-c2ccc(OCC(F)F)cc2)c2nc(NCC(F)(F)F)ncc2cn1-c1ccc2ncccc2c1 [Example 201, 8-(4-(2,2-difluoroethoxy)phenyl)-6-(quinolin-6-yl)-2-((2,2,2-trifluoroethyl)amino)pyrido[4,3-d]pyrimidin-7(6H)-one]
25 | > 7.00 | COc1ccc(-n2cc3cnc(NCC4CC4)nc3c(-c3ccc(Br)cc3)c2=O)cc1 [Example 190, 8-(4-bromophenyl)-2-((cyclopropylmethyl)amino)-6-(4-methoxyphenyl)pyrido[4,3-d]pyrimidin-7(6H)-one]
26 | 6.00 to 7.00 | O=c1c(-c2ccc(Cl)cc2)c2nc(NCC(F)(F)F)ncc2cn1-c1ccc2n[nH]cc2c1 [Example 142, 8-(4-chlorophenyl)-6-(2H-indazol-5-yl)-2-((2,2,2-trifluoroethyl)amino)pyrido[4,3-d]pyrimidin-7(6H)-one]
27 | 5.00 to 6.00 | COc1ccc(N2Cc3cnc(NCC4CC4)nc3C3(CCN(C4CCCCC4)C3)C2=O)cc1 (centres unmarked) [Example 104, 1′-cyclohexyl-2-((cyclopropylmethyl)amino)-6-(4-methoxyphenyl)-5H-spiro[pyrido[4,3-d]pyrimidine-8,3′-pyrrolidin]-7(6H)-one]
28 | 5.00 to 6.00 | O=C1N(Cc2ccn[nH]2)Cc2cnc(NCC3CC3)nc2C12CCN(Cc1ccccc1F)C2 (centres unmarked) [Example 120, 6-((1H-pyrazol-5-yl)methyl)-2-((cyclopropylmethyl)amino)-1′-(2-fluorobenzyl)-5,6-dihydro-7H-spiro[pyrido[4,3-d]pyrimidine-8,3′-pyrrolidin]-7-one]
29 | 6.00 to 7.00 | COc1ccc(N2Cc3cnc(NCC(C)C)nc3C3(CCN(Cc4cc[nH]n4)C3)C2=O)cc1 (centres unmarked) [Example 113, 1′-((1H-pyrazol-3-yl)methyl)-2-(isobutylamino)-6-(4-methoxyphenyl)-5H-spiro[pyrido[4,3-d]pyrimidine-8,3′-pyrrolidin]-7(6H)-one]
